This assay concerns the target recombinant human ASK1 kinase (Homo sapiens (Human), UniProt Q99683). Description: TR-FRET ASK1 (Apoptosis Signal-Regulating Kinase 1) kinase assay. The settings on record: TR-FRET/HTRF, 4 nM ASK1, 1 μM STK3 peptide substrate, 100 μM ATP, 3 hr; average of quadruplicate determination. In kind it is biochemical. From the text:
I. TR-FRET ASK1 (Apoptosis Signal-Regulating Kinase 1) Kinase Assay
To evaluate the inhibitory activity of compounds of the invention against ASK1 (Apoptosis Signal-regulating Kinase 1) kinase, its activity was examined using a TR-FRET ASK1 kinase assay which determined the amount of phosphate transferred to a peptide substrate from ATP.
Dephosphorylated recombinant human ASK1 kinase was from Gilead Sciences. Small molecule kinase inhibitor staurosporine (Catalogue #S6942) and dithiothreitol (DTT, catalogue #43815-5G) were obtained from Sigma Chemicals (St. Louis, Mo.). ATP (catalogue #7724) was from Affymetrix (Santa Clara, Calif.) and test compounds were from Gilead Sciences. HTRF KinEASE™-STK S3 kit was obtained from Cisbio (Bedford, Mass.). All other reagents were of the highest grade commercially available.
The assay measures the phosphorylation level of a biotinylated peptide substrate by the ASK1 kinase using HTRF detection. This is a competitive, time-resolved fluorescence resonance energy transfer (TR-FRET) immunoassay, based on HTRF® KinEASE™-STK manual from Cisbio. Test compound, 1 μM STK3 peptide substrate, 4 nM of ASK1 kinase were incubated with 10 mM MOP buffer, pH. 7.0 containing 10 mM Mg-acetate, 0.025% NP-40, 1 mM DTT, 0.05% BSA and 1.5% glycerol for 30 minutes then 100 μM ATP was added to start the kinase reaction and incubated for 3 hr. Peptide antibody labeled with 1×Eu^3+ Cryptate buffer containing 10 mM EDTA and 125 nM Streptavidin XL665 were added to stop the reaction and phosphorylated peptide substrate was detected using Envision 2103 Multilabeled reader from PerkinElmer. The fluorescence was measured at 615 nm (Cryptate) and 665 nm (XL665) and a ratio of 665 nm/615 nm was calculated for each well. The resulting TR-FRET level (a ratio of 665 nm/615 nm) was proportional to the phosphorylation level. Under these assay conditions, the degree of phosphorylation of peptide substrate was linear with time and concentration for the enzyme. The assay system yielded consistent results with regard to Km and specific activities for the enzyme. For inhibition experiments (IC50 values), activities were performed with constant concentrations of ATP, peptide and several fixed concentrations of inhibitors. Staurosporine, the nonselective kinase inhibitor, was used as the positive control. All enzyme activity data are reported as an average of quadruplicate determination.
The IC50 values were calculated following equation: y=Range/{1+(x/IC50)^s}+Background where x and y represent the concentration of inhibitors and enzyme activity, respectively. Enzyme activity is expressed as the amount of Phosphate incorporated into substrate peptide from ATP. Range is the maximum y range (no inhibitor, DMSO control) and s is a slope factor.
(In general: Time-resolved FRET reads energy transfer from a long-lived donor to a nearby acceptor.)
Sequence of recombinant human ASK1 kinase (Q99683 whole entry): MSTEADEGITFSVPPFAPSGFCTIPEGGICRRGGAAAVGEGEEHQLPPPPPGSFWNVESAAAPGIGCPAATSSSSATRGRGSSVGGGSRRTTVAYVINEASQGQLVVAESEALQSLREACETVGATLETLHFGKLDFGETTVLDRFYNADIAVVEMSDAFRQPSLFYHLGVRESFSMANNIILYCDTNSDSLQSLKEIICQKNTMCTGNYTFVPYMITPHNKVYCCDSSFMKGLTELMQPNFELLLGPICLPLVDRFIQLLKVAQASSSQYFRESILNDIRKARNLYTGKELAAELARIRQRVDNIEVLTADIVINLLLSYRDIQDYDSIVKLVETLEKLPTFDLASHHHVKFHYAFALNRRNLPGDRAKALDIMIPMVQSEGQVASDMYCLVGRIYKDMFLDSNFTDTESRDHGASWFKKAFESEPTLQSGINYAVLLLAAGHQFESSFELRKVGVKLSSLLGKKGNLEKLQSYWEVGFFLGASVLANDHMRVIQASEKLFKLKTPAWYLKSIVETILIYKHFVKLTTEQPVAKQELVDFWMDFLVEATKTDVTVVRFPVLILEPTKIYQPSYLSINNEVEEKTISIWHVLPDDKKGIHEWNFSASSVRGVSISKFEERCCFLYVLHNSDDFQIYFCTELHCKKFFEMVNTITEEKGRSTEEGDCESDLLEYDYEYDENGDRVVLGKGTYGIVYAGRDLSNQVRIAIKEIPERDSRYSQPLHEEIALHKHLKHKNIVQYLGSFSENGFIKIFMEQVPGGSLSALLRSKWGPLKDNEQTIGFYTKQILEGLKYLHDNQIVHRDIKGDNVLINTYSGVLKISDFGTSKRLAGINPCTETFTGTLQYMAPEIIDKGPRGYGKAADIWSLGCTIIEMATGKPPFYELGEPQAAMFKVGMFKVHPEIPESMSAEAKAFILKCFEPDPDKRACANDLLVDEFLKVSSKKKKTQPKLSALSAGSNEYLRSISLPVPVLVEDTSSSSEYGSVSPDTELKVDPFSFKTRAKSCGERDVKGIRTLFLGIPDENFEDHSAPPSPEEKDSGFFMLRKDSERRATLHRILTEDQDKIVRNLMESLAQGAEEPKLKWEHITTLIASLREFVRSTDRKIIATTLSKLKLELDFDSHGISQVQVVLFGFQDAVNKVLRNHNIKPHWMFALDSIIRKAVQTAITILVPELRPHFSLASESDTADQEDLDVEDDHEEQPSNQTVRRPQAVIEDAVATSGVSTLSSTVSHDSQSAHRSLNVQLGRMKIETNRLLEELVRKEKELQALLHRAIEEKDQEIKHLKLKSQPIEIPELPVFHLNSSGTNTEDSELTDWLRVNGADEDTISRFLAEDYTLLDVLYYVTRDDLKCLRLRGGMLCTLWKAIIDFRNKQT
As for `O=C(Nc1csc(-c2nncn2C2CC2)n1)c1cc(-n2cnc(C3CC3)c2)c(N2CC(F)(F)C2)cn1` [Compound 5, 4-(4-cyclopropylimidazol-1-yl)-N-[2-(4-cyclopropyl-1,2,4-triazol-3-yl)-1,3-thiazol-4-yl]-5-(3,3-difluoroazetidin-1-yl)pyridine-2-carboxamide], the half-maximal inhibitory concentration (IC50) (as a rule, the concentration that gives 50% inhibition) was 2.8 nM. Next, `C[C@H](n1cnnc1-c1nc(NC(=O)c2cc(-n3cnc(C4CC4)c3)c(N3CCN(CC4CC4)CC3)cn2)cs1)C(F)(F)F` [Compound 43, (S)-4-(4-cyclopropyl-1H-imidazol-1-yl)-5-(4-(cyclopropylmethyl)piperazin-1-yl)-N-(2-(4-(1,1,1-trifluoropropan-2-yl)-4H-1,2,4-triazol-3-yl)thiazol-4-yl)picolinamide]: 1.8 nM; `O=C(Nc1csc(-c2nncn2C2CC2)n1)c1cc(-n2cnc(C3CC3)c2)c(N2CCN3C(=O)OCC3C2)cn1` (stereo not drawn) [Compound 16, 4-(4-cyclopropylimidazol-1-yl)-N-[2-(4-cyclopropyl-l,2,4-triazol-3-yl)-1,3-thiazol-4-yl]-5-(3-oxo-5,6,8,8a-tetrahydro-1H-[1,3]oxazolo[3,4-a]pyrazin-7-yl)pyridine-2-carboxamide]: 2.7 nM; `N#CC1CCN(c2cnc(C(=O)Nc3csc(-c4nncn4C4CC4)n3)cc2-n2cnc(C3CC3)c2)CC1` [Compound 9, 5-(4-cyanopiperidin-1-yl)-4-(4-cyclopropylimidazol-1-yl)-N-[2-(4-cyclopropyl-1,2,4-triazol-3-yl)-1,3-thiazol-4-yl]pyridine-2-carboxamide]: 2.2 nM. Then `C[C@H](n1cnnc1-c1nc(NC(=O)c2cc(-n3cnc(C4CC4)c3)c(N3CCC(C#N)CC3)cn2)cs1)C(F)(F)F` [Compound 29, (S)-5-(4-cyanopiperidin-1-yl)-4-(4-cyclopropyl-1H-imidazol-1-yl)-N-(2-(4-(1,1,1-trifluoropropan-2-yl)-4H-1,2,4-triazol-3-yl)thiazol-4-yl)picolinamide], with 1.7 nM. On to `CC1(C#N)CN(c2cnc(C(=O)Nc3csc(-c4nncn4C4CC4)n3)cc2-n2cnc(C3CC3)c2)C1` [Compound 3, 5-(3-cyano-3-methylazetidin-1-yl)-4-(4-cyclopropyiimidazol-1-yl)-N-[2-(4-cyclopropyl-1,2,4-triazol-3-yl)-1,3-thiazol-4-yl]pyridine-2-carboxamide], for which the IC50 turned out to be 1.9 nM. Next, `O=C(Nc1csc(-c2nncn2C2CC2)n1)c1cc(-n2cnc(C3CC3)c2)c(N2CCN(CC3CC3)CC2)cn1` [Compound 20, 4-(4-cyclopropylimidazol-1-yl)-5-[4-(cyclopropylmethyl)piperazin-1-yl]-N-[2-(4-cyclopropyl-1,2,4-triazol-3-yl)-1,3-thiazol-4-yl]pyridine-2-carboxamide]: 2.5 nM. Next, `C[C@H](n1cnnc1-c1nc(NC(=O)c2cc(-n3cnc(C4CC4)c3)c(N3CCC4(CC3)COC4)cn2)cs1)C(F)(F)F` [Compound 44, (S)-4-(4-cyclopropyl-1H-imidazol-1-yl)-5-(2-oxa-7-azaspiro[3.5]nonan-7-yl)-N-(2-(4-(1,1,1-trifluoropropan-2-yl)-4H-1,2,4-triazol-3-yl)thiazol-4-yl)picolinamide]: 2.1 nM; `O=C(Nc1csc(-c2nncn2C2CC2)n1)c1cc(-n2cnc(C3CC3)c2)c(N2CC3(CCOCC3)C2)cn1` [Compound 22, 4-(4-cyclopropylimidazol-1-yl)-N-[2-(4-cyclopropyl-1,2,4-triazol-3-yl)-1,3-thiazol-4-yl]-5-(7-oxa-2-azaspiro[3.5]nonan-2-yl)pyridine-2-carboxamide]: 4.5 nM. Then `COC1CCN(c2cnc(C(=O)Nc3csc(-c4nncn4[C@@H](C)C(F)(F)F)n3)cc2-n2cnc(C3CC3)c2)CC1` [Compound 30, (S)-4-(4-cyclopropyl-1H-imidazol-1-yl)-5-(4-methoxypiperidin-1-yl)-N-(2-(4-(1,1,1-trifluoropropan-2-yl)-4H-1,2,4-triazol-3-yl)thiazol-4-yl)picolinamide], with 2.3 nM; and `COC1(C)CCN(c2cnc(C(=O)Nc3csc(-c4nncn4[C@@H](C)C(F)(F)F)n3)cc2-n2cnc(C3CC3)c2)CC1` [Compound 35, (S)-4-(4-cyclopropyl-1H-imidazol-1-yl)-5-(4-methoxy-4-methylpiperidin-1-yl)-N-(2-(4-(1,1,1-trifluoropropan-2-yl)-4H-1,2,4-triazol-3-yl)thiazol-4-yl)picolinamide], with 2.2 nM; and `COC1(C)CCN(c2cnc(C(=O)Nc3csc(-c4nncn4C4CC4)n3)cc2-n2cnc(C3CC3)c2)CC1` [Compound 12, 4-(4-cyclopropylimidazol-1-yl)-N-[2-(4-cyclopropyl-1,2,4-triazol-3-yl)-1,3-thiazol-4-yl]-5-(4-methoxy-4-methylpiperidin-1-yI)pyridine-2-carboxamide], with 14.2 nM. `C[C@H](n1cnnc1-c1nc(NC(=O)c2cc(-n3cnc(C4CC4)c3)c(N3CC(C(F)F)C3)cn2)cs1)C(F)(F)F` [Compound 26, (S)-4-(4-cyclopropyl-1H-imidazol-1-yl)-5-(3-(difluoromethyl)azetidin-1-yl)-N-(2-(4-(1,1,1-trifluoropropan-2-yl)-4H-1,2,4-triazol-3-yl)thiazol-4-yl)picolinamide]: the half-inhibitory concentration (IC50) was determined as 1.7 nM.

As for `C[C@H](n1cnnc1-c1nc(NC(=O)c2cc(-n3cnc(C4CC4)c3)c(N3CCC(F)CC3)cn2)cs1)C(F)(F)F` [Compound 34, (S)-4-(4-cyclopropyl-1H-imidazol-1-yl)-5-(4-fluoropiperidin-1-yl)-N-(2-(4-(1,1,1-trifluoropropan-2-yl)-4H-1,2,4-triazol-3-yl)thiazol-4-yl)picolinamide], the IC50 is 1.7 nM. Then `O=C(Nc1csc(-c2nncn2C2CC2)n1)c1cc(-n2cnc(C3CC3)c2)c(N2CC(C(F)F)C2)cn1` [Compound 1, 4-(4-cyclopropylimidazol-1-yl)-N-[2-(4-cyclopropyl-1,2,4-triazol-3-yl)-1,3-thiazol-4-yl]-5-[3-(difluoromethyl)azetidin-1-yl]pyridine-2-carboxamide], with 2.2 nM.

With `O=C(Nc1csc(-c2nncn2C2CC2)n1)c1cc(-n2cnc(C3CC3)c2)c(N2CCCOCC2)cn1` [Compound 14, 4-(4-cyclopropylimidazol-1-yl)-N-[2-(4-cyclopropyl-1,2,4-triazol-3-yl)-1,3-thiazol-4-yl]-5-(1,4-oxazepan-4-yl)pyridine-2-carboxamide], the concentration for half-maximal inhibition (IC50) turned out to be 3.8 nM. Next, `O=C(Nc1csc(-c2nncn2C2CC2)n1)c1cc(-n2cnc(C3CC3)c2)c(N2CCC(F)CC2)cn1` [Compound 8, 4-(4-cyclopropylimidazol-1-yl)-N-[2-(4-cyclopropyl-1,2,4-triazol-3-yl)-1,3-thiazol-4-yl]-5-(4-fluoropiperidin-1-yl)pyridine-2-carboxamide]: 2.5 nM; `C[C@H](n1cnnc1-c1nc(NC(=O)c2cc(-n3cnc(C4CC4)c3)c(N3CCCOCC3)cn2)cs1)C(F)(F)F` [Compound 36, (S)-4-(4-cyclopropyl-1H-imidazol-1-yl)-5-(1,4-oxazepan-4-yl)-N-(2-(4-(1,1,1-trifluoropropan-2-yl)-4H-1,2,4-triazol-3-yl)thiazol-4-yl)picolinamide]: 1.9 nM. `C[C@H](n1cnnc1-c1nc(NC(=O)c2cc(-n3cnc(C4CC4)c3)c(N3CCC(C(F)(F)F)CC3)cn2)cs1)C(F)(F)F` [Compound 32, (S)-4-(4-cyclopropyl-1H-imidazol-1-yl)-5-(4-(trifluoromethyl)piperidin-1-yl)-N-(2-(4-(1,1,1-trifluoropropan-2-yl)-4H-1,2,4-triazol-3-yl)thiazol-4-yl)picolinamide]: the IC50 was found to be 1.5 nM. Then `N#CC1CN(c2cnc(C(=O)Nc3csc(-c4nncn4C4CC4)n3)cc2-n2cnc(C3CC3)c2)C1` [Compound 2, 5-(3-cyanoazetidin-1-yl)-4-(4-cyclopropylimidazol-1-yl)-N-[2-(4-cyclopropyl-1,2,4-triazol-3-yl)-1,3-thiazol-4-yl]pyridine-2-carboxamide], with 0.9 nM. For the molecule `O=C(Nc1csc(-c2nncn2C2CC2)n1)c1cc(-n2cnc(C3CC3)c2)c(N2CCC3(CC2)COC3)cn1` [Compound 21, 4-(4-cyclopropylimidazol-1-yl)-N-[2-(4-cyclopropyl-1,2,4-triazol-3-yl)-1,3-thiazol-4-yl]-5-(2-oxa-7-azaspiro[3.5]nonan-7-y!)pyridine-2-carboxamide], the IC50 stood at 1.9 nM.

These data come from patent US9169243B2, “Apoptosis signal-regulating kinase inhibitors” (Gilead Sciences, Inc., priority 2013, dated 2015).
